From the NIST ThermoML archive (doi:10.1016/j.tca.2015.02.014)
± gives the expanded uncertainty stated by the source.

Assay: mn = molality of the nth substance listed, in mol/kg
Conditions: 100 kPa, Liquid; for viscosity: Capillary tube (Ostwald / Ubbelohde) method; for speed of sound: Frequency=3 MHz, Sing-around technique in a fixed-path interferometer; for mass density: Vibrating tube method

C[C@H](CCC(=O)[O-])[C@H]1CC[C@H]2[C@@H]3CC[C@@H]4C[C@H](O)CC[C@]4(C)[C@H]3C[C@H](O)[C@]12C.[Na+] [sodium deoxycholate] + O
Conditions | mass density [kg/m3] | speed of sound [m/s] | viscosity [mPa·s]
293.15 K, m1 = 0.001 | 998.465 ± 0.14 | 1483.4 ± 1.4 | 1.003 ± 0.021
293.15 K, m1 = 0.002 | 998.579 ± 0.12 | 1483.8 ± 1.3 | 1.004 ± 0.021
293.15 K, m1 = 0.003 | 998.669 ± 0.12 | 1484.2 ± 1.3 | 1.006 ± 0.021
293.15 K, m1 = 0.004 | 998.749 ± 0.12 | 1484.5 ± 1.3 | 1.009 ± 0.021
293.15 K, m1 = 0.005 | 998.815 ± 0.12 | 1484.6 ± 1.3 | 1.014 ± 0.022
293.15 K, m1 = 0.006 | 998.905 ± 0.12 | 1485 ± 1.3 | 1.027 ± 0.022
293.15 K, m1 = 0.007 | 998.995 ± 0.12 | 1485.2 ± 1.3 | 1.036 ± 0.021
293.15 K, m1 = 0.009 | 999.185 ± 0.12 | 1485.5 ± 1.6 | 1.045 ± 0.022
293.15 K, m1 = 0.011 | 999.39 ± 0.12 | 1485.8 ± 1.3 | 1.049 ± 0.021
293.15 K, m1 = 0.013 | 999.585 ± 0.12 | 1486.2 ± 1.3 | 1.053 ± 0.021
293.15 K, m1 = 0.015 | 999.795 ± 0.12 | 1486.5 ± 1.6 | 1.062 ± 0.022
293.15 K, m1 = 0.017 | 999.993 ± 0.12 | 1486.8 ± 1.3 | 1.069 ± 0.021
298.15 K, m1 = 0.001 | 997.29 ± 0.14 | 1497.2 ± 1.3 | 0.8914 ± 0.021
298.15 K, m1 = 0.002 | 997.395 ± 0.12 | 1497.5 ± 1.3 | 0.8926 ± 0.021
298.15 K, m1 = 0.003 | 997.475 ± 0.12 | 1497.8 ± 1.3 | 0.8937 ± 0.021
298.15 K, m1 = 0.004 | 997.555 ± 0.12 | 1497.9 ± 1.3 | 0.8967 ± 0.021
298.15 K, m1 = 0.005 | 997.635 ± 0.12 | 1498.1 ± 1.3 | 0.9021 ± 0.021
298.15 K, m1 = 0.006 | 997.715 ± 0.12 | 1498.4 ± 1.3 | 0.915 ± 0.022
298.15 K, m1 = 0.007 | 997.805 ± 0.13 | 1498.7 ± 1.3 | 0.924 ± 0.021
298.15 K, m1 = 0.009 | 997.996 ± 0.12 | 1499.2 ± 1.3 | 0.9323 ± 0.021
298.15 K, m1 = 0.011 | 998.185 ± 0.12 | 1499.5 ± 1.3 | 0.9368 ± 0.021
298.15 K, m1 = 0.013 | 998.388 ± 0.12 | 1499.9 ± 1.3 | 0.941 ± 0.021
298.15 K, m1 = 0.015 | 998.572 ± 0.12 | 1500.2 ± 1.3 | 0.9489 ± 0.021
298.15 K, m1 = 0.017 | 998.772 ± 0.12 | 1500.6 ± 1.3 | 0.956 ± 0.021
303.15 K, m1 = 0.001 | 995.88 ± 0.14 | 1509.6 ± 1.3 | 0.7987 ± 0.021
303.15 K, m1 = 0.002 | 995.983 ± 0.13 | 1509.9 ± 1.3 | 0.7999 ± 0.021
303.15 K, m1 = 0.003 | 996.059 ± 0.13 | 1510 ± 1.3 | 0.801 ± 0.021
303.15 K, m1 = 0.004 | 996.137 ± 0.13 | 1510.2 ± 1.3 | 0.8039 ± 0.021
303.15 K, m1 = 0.005 | 996.215 ± 0.13 | 1510.5 ± 1.3 | 0.8092 ± 0.021
303.15 K, m1 = 0.006 | 996.289 ± 0.13 | 1510.7 ± 1.3 | 0.822 ± 0.021
303.15 K, m1 = 0.007 | 996.377 ± 0.13 | 1511 ± 1.3 | 0.8309 ± 0.021
303.15 K, m1 = 0.009 | 996.557 ± 0.13 | 1511.3 ± 1.3 | 0.8391 ± 0.021
303.15 K, m1 = 0.011 | 996.745 ± 0.13 | 1511.8 ± 1.3 | 0.8434 ± 0.021
303.15 K, m1 = 0.013 | 996.921 ± 0.13 | 1512 ± 1.3 | 0.8476 ± 0.021
303.15 K, m1 = 0.015 | 997.109 ± 0.13 | 1512.3 ± 1.3 | 0.8554 ± 0.021
303.15 K, m1 = 0.017 | 997.29 ± 0.13 | 1512.7 ± 1.3 | 0.8624 ± 0.021
308.15 K, m1 = 0.001 | 994.255 ± 0.14 | 1520.1 ± 1.3 | 0.7203 ± 0.021
308.15 K, m1 = 0.002 | 994.355 ± 0.13 | 1520.5 ± 1.3 | 0.7215 ± 0.021
308.15 K, m1 = 0.003 | 994.435 ± 0.13 | 1520.7 ± 1.3 | 0.7225 ± 0.021
308.15 K, m1 = 0.004 | 994.509 ± 0.13 | 1520.8 ± 1.3 | 0.7254 ± 0.021
308.15 K, m1 = 0.005 | 994.587 ± 0.13 | 1521 ± 1.3 | 0.7307 ± 0.021
308.15 K, m1 = 0.006 | 994.659 ± 0.13 | 1521.3 ± 1.3 | 0.7433 ± 0.021
308.15 K, m1 = 0.007 | 994.739 ± 0.13 | 1521.5 ± 1.3 | 0.752 ± 0.021
308.15 K, m1 = 0.009 | 994.914 ± 0.13 | 1521.9 ± 1.3 | 0.7601 ± 0.021
308.15 K, m1 = 0.011 | 995.094 ± 0.13 | 1522.2 ± 1.3 | 0.7644 ± 0.021
308.15 K, m1 = 0.013 | 995.282 ± 0.13 | 1522.6 ± 1.3 | 0.7685 ± 0.021
308.15 K, m1 = 0.015 | 995.452 ± 0.13 | 1522.8 ± 1.3 | 0.7762 ± 0.021
308.15 K, m1 = 0.017 | 995.616 ± 0.13 | 1523.2 ± 1.3 | 0.7831 ± 0.021
313.15 K, m1 = 0.001 | 992.421 ± 0.14 | 1529.3 ± 1.3 | 0.6543 ± 0.021
313.15 K, m1 = 0.002 | 992.515 ± 0.14 | 1529.5 ± 1.3 | 0.6554 ± 0.021
313.15 K, m1 = 0.003 | 992.6 ± 0.14 | 1529.7 ± 1.3 | 0.6565 ± 0.021
313.15 K, m1 = 0.004 | 992.681 ± 0.14 | 1529.8 ± 1.3 | 0.6593 ± 0.021
313.15 K, m1 = 0.005 | 992.757 ± 0.14 | 1530 ± 1.3 | 0.6645 ± 0.021
313.15 K, m1 = 0.006 | 992.817 ± 0.14 | 1530.3 ± 1.3 | 0.677 ± 0.021
313.15 K, m1 = 0.007 | 992.91 ± 0.14 | 1530.5 ± 1.3 | 0.6857 ± 0.021
313.15 K, m1 = 0.009 | 993.064 ± 0.14 | 1530.9 ± 1.3 | 0.6936 ± 0.021
313.15 K, m1 = 0.011 | 993.239 ± 0.14 | 1531.2 ± 1.3 | 0.6979 ± 0.021
313.15 K, m1 = 0.013 | 993.428 ± 0.14 | 1531.5 ± 1.3 | 0.7019 ± 0.021
313.15 K, m1 = 0.015 | 993.595 ± 0.14 | 1531.8 ± 1.3 | 0.7096 ± 0.021
313.15 K, m1 = 0.017 | 993.737 ± 0.13 | 1532 ± 1.3 | 0.7164 ± 0.021
318.15 K, m1 = 0.001 | 990.405 ± 0.14 | 1536.9 ± 1.3 | 0.5973 ± 0.021
318.15 K, m1 = 0.002 | 990.499 ± 0.14 | 1537.1 ± 1.3 | 0.5984 ± 0.021
318.15 K, m1 = 0.003 | 990.576 ± 0.14 | 1537.3 ± 1.3 | 0.5994 ± 0.021
318.15 K, m1 = 0.004 | 990.651 ± 0.14 | 1537.3 ± 1.3 | 0.6022 ± 0.021
318.15 K, m1 = 0.005 | 990.732 ± 0.14 | 1537.5 ± 1.3 | 0.6074 ± 0.021
318.15 K, m1 = 0.006 | 990.802 ± 0.14 | 1537.7 ± 1.3 | 0.6197 ± 0.021
318.15 K, m1 = 0.007 | 990.892 ± 0.14 | 1537.9 ± 1.3 | 0.6283 ± 0.021
318.15 K, m1 = 0.009 | 991.03 ± 0.14 | 1538.3 ± 1.3 | 0.6361 ± 0.022
318.15 K, m1 = 0.011 | 991.199 ± 0.14 | 1538.6 ± 1.3 | 0.6403 ± 0.021
318.15 K, m1 = 0.013 | 991.379 ± 0.14 | 1538.9 ± 1.3 | 0.6443 ± 0.021
318.15 K, m1 = 0.015 | 991.535 ± 0.14 | 1539.2 ± 1.3 | 0.6518 ± 0.021
318.15 K, m1 = 0.017 | 991.705 ± 0.14 | 1539.5 ± 1.3 | 0.6586 ± 0.021
